Source: paper PMC3582601, “New analogues of 13-hydroxyocatdecadienoic acid and 12-hydroxyeicosatetraenoic acid block human blood platelet aggregation and cyclooxygenase-1 activity” (Chemistry Central Journal, 2012)
Where two headings read alike, the source gives them in different places.

What was measured:
[1] = tested on: human washed platelets; assay: Platelet aggregation triggered by arachidonic acid (light transmittance aggregometry); format: cell-based; conditions: for Effect on arachidonic acid-dependent platelet aggregation: 25 μM arachidonic acid, human washed platelets; for Plt aggregation IC50 ± S.E.M / IC50: human washed platelets 0.4 x 10^9 plt/ml, inhibitor 1 min before 25 μM arachidonic acid, n = 3–4; for IC50: read-out: Plt aggregation IC50 ± S.E.M
Description: Figure 2 Aggregation curves of inhibitory compounds. Platelet aggregation was performed on human washed platelets. Platelets (0.4 × 10^9 plt/ml) were treated with increasing concentrations of each inhibitor for 1 min prior to the addition of 25 μM of arachidonic acid for 2 min. Results represent aggregation curves of compound 3 (A), compound 4 (B), compound 7 (C), compound 8 (D), and compound 9 (E). Aggregation curves are representative of at least 4 experiments with similar results.
Slopes of aggregation curves were analyzed by Grafit 7 software and inhibition curves were obtained. (A) represents compounds of type I and (B) compounds of type II. […] Results correspond to mean ± S.E.M. for 3–5 experiments.
(§1) Venous blood was obtained from healthy volunteers who had not ingested any drugs for the last 14 days and after informed consent in accordance with the Institutional Review Board (IRB) of the American University of Beirut (Approval # BioCh.AH.03). Washed platelets were prepared as described previously. Briefly, 20 ml of peripheral blood was withdrawn on ACD-C (1 volume for 9 volumes of blood) and centrifuged at 120 g for 15 min at room temperature (RT) to obtain platelet-rich plasma. Platelet-rich plasma was further centrifuged at 1,200 g for 15 min at RT, and the platelet pellet obtained was washed by Tyrode buffer solution containing 0.1 μM of PGE1 and further centrifuged at 1,200 g for 15 min at RT. […] Aggregation of washed-platelets was determined using light transmittance aggregometry (Chrono-Log Corp., Havertown, PA). 400 μl of platelets (0.4 x 10^9plt/ml) were preincubated for 1 min at 37 °C in the absence or presence of inhibitors prior to the addition of 25 μM of arachidonic acid, which was controlled as optimal in our conditions. In some experiments, platelets were triggered with 1 μM U46619, a TX receptor agonist, or 0.5 μg/ml collagen, a concentration we checked in our conditions to induce COX-dependent platelet aggregation. TXB2 was measured in the supernatant by enzyme immunoassay.
(§2) Aggregation data were expressed after defining the slope for each aggregation curve, which better reflects the rate of the platelet reaction, using the Born’s method. Curve fitting and calculation of the IC50 values were done using Grafit 7 software (Erithacus software, Staines, UK). Results of TXB2 and PGE2 measurement were expressed as the mean ± S.E.M. for at least 3 different experiments and statistical analysis was performed using Sigma Plot (Systat Software Inc., San Jose, CA). Autoradiograms obtained from western blot analyses were scanned using Epson 1680 pro scanner and densitometric analysis was performed using Scion Image (Scion Corporation, MD).

[2] = tested on: human washed platelets; assay: Platelet aggregation induced by collagen; format: cell-based; conditions: 0.5 μg/ml collagen
Description: Figure 6 Effect of inhibitory compounds on platelet aggregation and TXB2 level formation in response to collagen. […] TXB2 levels were measured in the supernatant of platelets (C). Results represent 3 experiments.
as §1

[3] = molecular target: T1, human COX-1 (Homo sapiens, UniProt P23219); assay: COX-1 activity (PGE2 by enzyme immunoassay) in COS-7 cells overexpressing human COX-1; format: cell-based; conditions: COS-7 cells overexpressing human COX-1, 30 min compound then 25 μM arachidonic acid 30 min, n = 3-4, read-out: COX-1 activity IC50 ± S.E.M
T1 construct: expressed in transfected cells; host or cells: COS-7
Description: Figure 4 Inhibition of COX-1 activity. Human COX-1 was overexpressed in COS-7 cells. […] PGE2 was measured in the supernatant by enzyme immunoassay. Results were expressed as percentage of PGE2 in arachidonic acid treated samples which was attributed a value of 100. Fitting of curves was done using Grafit software. Results correspond to mean ± S.E.M. for 3 experiments. […] Insert represents Western blot analysis of COX-1 using selective monoclonal COX-1 in untransfected and pcDNA3-COX-1transfected cells.
as §2

[4] = tested on: COS-7 cells overexpressing COX-1; assay: WST-1 viability assay; conditions: 25 and 50 μM
Description: We used COS-7 cells overexpressing human COX-1. […] In these cells which express only COX-1, arachidonic acid is metabolized into prostaglandin (PG) H2 which will consequently breakdown into PGE2. Measurement of PGE2 under these conditions will reflect COX-1 activity [18, 19].
COS-7 cells were grown using DMEM-medium containing 10% fetal bovine serum (FBS). Cells were transfected in suspension with pcDNA3-COX-1 plasmid using FuGENE® 6 transfection reagent at a ratio of 3:1 (FuGENE: DNA, v/w) and then cultured in DMEM media + 10% FBS in 12-well plates. […] PGE2 was measured in the supernatants by enzyme immunoassay [23]. Cells were washed twice with PBS and lysed in lysis buffer. […] Briefly, SDS polyacrylamide electrophoresis was performed using 8% gels followed by protein transfer using a semi-dry transfer machine.

[5] = molecular target: T2, thromboxane receptor (Homo sapiens, UniProt P21731); assay: Platelet aggregation in response to TX receptor agonist U46619; format: cell-based; conditions: 50 μM compound, 1 μM U46619
T2 construct: Venous blood was obtained from healthy volunteers; endogenous in cells; host or cells: washed human blood platelets
T2 sequence (P21731 1-343): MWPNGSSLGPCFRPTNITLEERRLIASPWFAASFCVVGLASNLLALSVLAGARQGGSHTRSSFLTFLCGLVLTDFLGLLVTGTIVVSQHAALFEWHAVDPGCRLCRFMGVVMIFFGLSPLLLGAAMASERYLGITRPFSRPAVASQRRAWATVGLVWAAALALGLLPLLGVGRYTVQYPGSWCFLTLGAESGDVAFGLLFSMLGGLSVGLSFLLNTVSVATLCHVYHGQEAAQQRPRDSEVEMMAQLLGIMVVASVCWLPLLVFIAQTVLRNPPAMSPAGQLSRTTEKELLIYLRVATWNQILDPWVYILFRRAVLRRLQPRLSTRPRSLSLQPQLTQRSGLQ
Description: Figure 7 Effect of inhibitory compounds on platelet aggregation in response to TX receptor agonist, U46619. Platelets (0.4x 10^9 plt/ml) were pretreated with 50 μM of inhibitory compounds 3, 4, 7, 8 and 9 then triggered with 1 μM U46619, a thromboxane receptor agonist. Aggregation curves of compounds of type I (A) and type II (B) are representative of 2 experiments with similar results.
as §1

T1 sequence (P23219 24-599): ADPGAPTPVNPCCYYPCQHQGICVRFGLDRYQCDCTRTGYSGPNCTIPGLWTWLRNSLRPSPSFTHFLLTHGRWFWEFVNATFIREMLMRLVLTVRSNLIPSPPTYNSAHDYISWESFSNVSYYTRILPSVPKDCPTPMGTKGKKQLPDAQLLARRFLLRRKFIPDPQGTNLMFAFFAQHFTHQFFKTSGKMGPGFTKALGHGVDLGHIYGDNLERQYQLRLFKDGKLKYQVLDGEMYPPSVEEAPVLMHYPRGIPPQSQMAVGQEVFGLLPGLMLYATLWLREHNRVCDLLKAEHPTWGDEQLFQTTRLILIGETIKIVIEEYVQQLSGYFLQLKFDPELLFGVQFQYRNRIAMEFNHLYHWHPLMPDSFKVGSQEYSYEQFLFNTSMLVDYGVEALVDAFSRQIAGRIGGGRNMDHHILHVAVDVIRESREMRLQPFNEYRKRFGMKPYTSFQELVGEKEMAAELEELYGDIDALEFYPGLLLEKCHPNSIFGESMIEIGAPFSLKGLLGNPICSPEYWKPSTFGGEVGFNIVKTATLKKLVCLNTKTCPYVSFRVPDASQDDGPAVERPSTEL

| SMILES | Effect on arachidonic acid-dependent platelet aggregation [1] | Plt aggregation IC50 ± S.E.M [1] | IC50 [1] [µM] | Platelet aggregation induced by collagen ([2]; 50 μM compound) | IC50 [3] [µM] | Toxicity in WST-1 viability assay [4] | Thromboxane receptor-dependent platelet aggregation [5] | IC50 ([1]; Platelet) [µM] | Platelet aggregation induced by collagen ([2]; 25 μM ibuprofen) |
| --- | --- | --- | --- | --- | --- | --- | --- | --- | --- |
| CCCCCC(O)c1cccc(C=NO)c1 (stereo not drawn) [Compound 1] | no inhibitory effect | No inhibition |  |  |  |  |  |  |  |
| CCCCCC(O)c1cccc(C(=O)O)c1 (stereo not drawn) [Compound 2] | no inhibitory effect | No inhibition |  |  |  |  |  |  |  |
| CCCCCC(O)c1ccc(O)c(OC)c1 (stereo not drawn) [Compound 3] |  |  | 7.5 ± 0.8 | blocked platelet aggregation induced by collagen | 2.2 ± 0.7 | absence of toxicity | None of the compounds 3, 4, 7, 8 and 9 were able to act |  |  |
| CCCCC(O)c1ccc(O)c(OC)c1 (stereo not drawn) [Compound 4] |  |  | 14.2 ± 5.7 | blocked platelet aggregation induced by collagen | 12.1 ± 2.3 | absence of toxicity | None of the compounds 3, 4, 7, 8 and 9 were able to act |  |  |
| CCCCCCCCCC(O)c1ccc(O)c(OC)c1 (stereo not drawn) [Compound 5] | loss of the inhibitory activity |  | 97.6 ± 83.5 |  |  |  |  |  |  |
| COc1cc(C(O)C2CCCC2)ccc1O (stereo not drawn) [Compound 6] | loss of the inhibitory activity |  | 41.2 ± 0.7 |  |  |  |  |  |  |
| COc1cc(C(O)c2ccccc2)ccc1O (stereo not drawn) [Compound 7] | significant inhibitory activities |  | 8.5 ± 1.2 | blocked platelet aggregation induced by collagen | 1.3 ± 0.5 | absence of toxicity | None of the compounds 3, 4, 7, 8 and 9 were able to act |  |  |
| COc1cc(C(O)c2ccc(F)cc2)ccc1O (stereo not drawn) [Compound 8] | significant inhibitory activities |  | 13.4 ± 0.5 | blocked platelet aggregation induced by collagen | 6.5 ± 0.2 | absence of toxicity | None of the compounds 3, 4, 7, 8 and 9 were able to act |  |  |
| COc1cc(C(C)(O)c2ccccc2)ccc1O (stereo not drawn) [Compound 9] |  |  | 11.3 ± 4.8 | blocked platelet aggregation induced by collagen | 8.1 ± 1.7 | absence of toxicity | None of the compounds 3, 4, 7, 8 and 9 were able to act |  |  |
| COc1ccc(C(O)c2ccccc2)cc1OC (stereo not drawn) [Compound 10] | completely abolished the inhibitory activity | No inhibition |  |  |  |  |  |  |  |
| CC(C)Cc1ccc(C(C)C(=O)O)cc1 (stereo not drawn) [Ibuprofen, reference compound] |  |  |  |  |  |  |  | 0.5 ± 0.11 | strongly inhibited |
